Test results as given in patent publication US10309967B2, “Methods of diagnosing bipolar disorders and screening for therapeutic compounds” (National University Corporation Chiba University, priority 2015, dated 2019).
Entries after “also recorded” stand apart in the source; their conditions may differ.

How the values were obtained:
[1] = tested on: Aco2; experiment: Quantitative PCR of Aco2 mRNA in rat prefrontal cortex and hippocampus after Li or VPA; assay type: in vivo; conditions: normalized to Gapdh; for Aco2 gene expression: relative to control, mean ± SD
Method: (§1) Real-time quantitative RT-PCR analysis was conducted using an ABI7900HT Fast Real-Time PCR System (Applied Biosystems, Foster City, Calif.) in both human and rat samples. TaqMan probes and primers for the seven genes (ACO1, ACO2, IDH1, IDH2, IDH3A, IDH3B, IDH3G) and GAPDH (an internal control) (Table 11) were TAQMAN® Gene Expression Assays products (Applied Biosystems).
(§2) The CSF concentrations of 116 major metabolites from several pathways were measured. […] Male Sprague-Dawley rats (Japan SLC Inc., Shizuoka, Japan) aged 6 weeks old were used in this study. All rats were housed in groups of three per cage in a room maintained at 23° C.±2° C. and 60±10% humidity with a 12/12 hour light/dark cycle (lights on at 7:00 a.m.). The rats were given free access to food and water. Animal care and use were conducted in accordance with the Institutional Guidelines for Animal Care and Use of Otsuka Pharmaceutical Co., Ltd. (Tokushima, Japan). […] The drinking water was replaced twice a week. […] All animals were decapitated on day 30 after CSF sampling, and brain regions (prefrontal cortex, and hippocampus) were dissected rapidly on ice. Metabolomic analyses of rat CSF samples were performed as described herein.
(§3) Prefrontal cortex, and hippocampus were dissected rapidly on ice and stored in RNA later (Applied Biosystems) at 4° C. until used for RNA isolation, cDNA synthesis and polymerase chain reaction (PCR) amplification. The total RNA was extracted using the RNeasy Lipid Tissue Mini Kit (QIAGEN) following the instructions of manufacturer. RNA yield and integrity was assessed using Nanodrop (NanoDrop Technologies). Reverse transcription of total RNA was done using the […] VILO cDNA Synthesis Kit (Invitrogen). In the quantitative PCR, the cDNA was amplified using commercial TaqMan assays (Applied Biosystems) for rat Idh3A (Rn00586270_m1), Idh3B (Rn00504589_g1), Aco1 (Rn00569045_m1), Aco2 (Rn00577876_m1) and Gapdh (Rn01775763_g1) with an ABI 7500 Fast Real-Time PCR system (Applied Biosystems). (Table 17) Reactions were performed in triplicates. All reactions were normalized to Gapdh and presented as relative expression changes compared to control.

[2] = tested on: serum samples from rats; experiment: Metabolomics of serum samples from rats chronically treated with Li or VPA; assay type: in vivo, rat; conditions: chronic (4-weeks) treatment
Method: Data from human samples are presented as mean±standard deviation (SD). Statistical analysis was performed using SAS software version 9.3 (SAS Institute, Cary, N.C.). Analyses of metabolites between control and BD groups were performed using unpaired t-tests and Wilcoxon rank sum tests. A logistic regression model with a stepwise selection method was used for the multivariate analysis and multiple regression analysis (consistent with description in Allen et al., Technometrics. 1974; 16(1):125-127; and Miller et al., Chapman and Hall. 1974, which are incorporated in their entireties by reference herein). […] The Mann-Whitney U test (two-tailed) was used to evaluate changes in expression levels of the ACO and IDH genes between control and BD groups. Rat data are presented as mean±SD. To determine the effects of drug treatment, a one-way ANOVA, followed by the post hoc Dunnett's test was used. P values of less than 0.05 for two-tailed tests were considered statistically significant.
as §2
The serum concentrations of 116 major metabolites from several pathways were measured.

[3] = tested on: Idh3b; experiment: Quantitative PCR of Idh3b mRNA in rat prefrontal cortex and hippocampus after Li or VPA; assay type: in vivo; conditions: normalized to Gapdh; for Idh3b gene expression: relative to control, mean ± SD
Method: as §1, §2, §3

[4] = tested on: Idh3a; experiment: Quantitative PCR of Idh3a mRNA in rat prefrontal cortex and hippocampus after Li or VPA; assay type: in vivo; conditions: normalized to Gapdh
Method: as §1, §2, §3

[5] = rat prefrontal cortex and hippocampus, chronic (4-weeks) treatment, vs control, sodium salt

Compound: CCCC(CCC)C(=O)[O-].[Na+] [VPA, valproic acid sodium salt]
- Aco2 gene expression ([1]; rat hippocampus): 1.0358 ± 0.0499
- mRNA levels of Aco2 [1, 5]: did not alter; also recorded: not altered
- Aco2 gene expression ([1]; rat prefrontal cortex): 0.9505 ± 0.1596
- 2,3-Diphosphoglyceric acid Mean ([2]; rat serum): 2.1
- 2-Hydroxyglutaric acid Mean ([2]; rat serum): 1.5
- 2-Oxoglutaric acid Mean ([2]; rat serum): 29
- 2-Oxoisovaleric acid Mean ([2]; rat serum): 15
- 2-Phosphoglyceric acid Mean ([2]; rat serum): 0.6
- 3-Phosphoglyceric acid Mean ([2]; rat serum): 5.0
- ADP-ribose Mean ([2]; rat serum): 0.13
- AMP Mean ([2]; rat serum): 0.4
- ATP Mean ([2]; rat serum): 4.2
- Ala Mean ([2]; rat serum): 757
- Arg Mean ([2]; rat serum): 206
- Argininosuccinic acid Mean ([2]; rat serum): 0.4
- Asn Mean ([2]; rat serum): 77
- Asp Mean ([2]; rat serum): 12
- Betaine Mean ([2]; rat serum): 287
- Carnitine Mean ([2]; rat serum): 78
- Carnosine Mean ([2]; rat serum): 0.2
- Choline Mean ([2]; rat serum): 13
- Citric acid Mean ([2]; rat serum): 151
- Citrulline Mean ([2]; rat serum): 92
- Creatine Mean ([2]; rat serum): 211
- Creatinine Mean ([2]; rat serum): 25
- Cystathionine Mean ([2]; rat serum): 1.1
- Fructose 1,6-diphosphate Mean ([2]; rat serum): 0.3
- Fructose 6-phosphate Mean ([2]; rat serum): 0.09
- Fumaric acid Mean ([2]; rat serum): 2.6
- GDP Mean ([2]; rat serum): 0.4
- GMP Mean ([2]; rat serum): 0.07
- GTP Mean ([2]; rat serum): 1.9
- Gln Mean ([2]; rat serum): 1,001
- Glu Mean ([2]; rat serum): 173
- Glucose 6-phosphate Mean ([2]; rat serum): 0.6
- Glutathione (GSSG) Mean ([2]; rat serum): 0.4
- Gly Mean ([2]; rat serum): 488
- Glycerol 3-phosphate Mean ([2]; rat serum): 3.5
- Glycolic acid Mean ([2]; rat serum): 11
- His Mean ([2]; rat serum): 90
- Hydroxyproline Mean ([2]; rat serum): 65
- IMP Mean ([2]; rat serum): 0.13
- Ile Mean ([2]; rat serum): 119
- Isocitric acid Mean ([2]; rat serum): 8.2
- Lactic acid Mean ([2]; rat serum): 2,751
- Leu Mean ([2]; rat serum): 207
- Lys Mean ([2]; rat serum): 696
- Malic acid Mean ([2]; rat serum): 12
- Met Mean ([2]; rat serum): 53
- Mevalonic acid Mean ([2]; rat serum): 1.5E−04
- N,N-Dimethylglycine Mean ([2]; rat serum): 11
- N-Carbamoylaspartic acid Mean ([2]; rat serum): 0.02
- NAD^+ Mean ([2]; rat serum): 1.1
- Ornithine Mean ([2]; rat serum): 76
- Phe Mean ([2]; rat serum): 65
- Phosphocreatine Mean ([2]; rat serum): 0.9
- Pro Mean ([2]; rat serum): 220
- Putrescine Mean ([2]; rat serum): 0.3
- Pyruvic acid Mean ([2]; rat serum): 107
- Ribose 1-phosphate Mean ([2]; rat serum): 0.4
- Ribose 5-phosphate Mean ([2]; rat serum): 0.04
- Ribulose 5-phosphate Mean ([2]; rat serum): 0.2
- Sarcosine Mean ([2]; rat serum): 5.5
- Ser Mean ([2]; rat serum): 319
- Succinic acid Mean ([2]; rat serum): 10
- Thr Mean ([2]; rat serum): 217
- Trp Mean ([2]; rat serum): 110
- Tyr Mean ([2]; rat serum): 89
- UDP-glucose Mean ([2]; rat serum): 0.6
- Urea Mean ([2]; rat serum): 5,050
- Uric acid Mean ([2]; rat serum): 25
- Val Mean ([2]; rat serum): 290
- cAMP Mean ([2]; rat serum): 0.05
- cGMP Mean ([2]; rat serum): 0.02
- cis-Aconitic acid Mean ([2]; rat serum): 3.1
- β-Ala Mean ([2]; rat serum): 1.9
- serum levels of N-acetylglutamic acid ([2]; rats, vs control): not altered
- serum levels of arginine ([2]; rats, vs control): not altered
- serum levels of pyruvic acid ([2]; rats, vs control): not altered
- serum levels of serine ([2]; rats, vs control): not altered
- serum levels of β-alanine ([2]; rats, vs control): not altered
- Idh3b gene expression ([3]; rat hippocampus): 1.1512 ± 0.1377
- mRNA levels of Idh3b [3, 5]: did not alter; also recorded: not altered
- Idh3b gene expression ([3]; rat prefrontal cortex): 1.2265 ± 0.2128
- mRNA levels of Idh3a [4, 5]: did not alter; also recorded: not altered
- Idh3a gene expression ([4]; rat prefrontal cortex, relative to control, mean ± SD): 1.2546 ± 0.3578
